From PMC12717519, “Chemical clues to infection: A pilot study on the differential secondary metabolite production during the life cycle of selected Cordyceps species” (IMA Fungus, 2025) come the findings set out here.

Values after ≈ are worked out from the molar mass of the structure shown. Where two headings read alike, the source gives them in different places.

The subject of assay [1] is Bacillus subtilis (DSM 10). In words: microbe, parasite or virus in culture. To be noted: serial dilution in 96-well microtiter plates, tested up to 67 µg/mL. The assay is classed as cell-based. The method, then: (§1) Serial dilution assays were performed in 96-well microtiter plates to determine the minimum inhibitory concentrations (MICs) against a panel of yeasts, filamentous fungi, and bacteria, as well as the half-maximal inhibitory concentrations (IC50) against human cell lines, following our previously described protocol ([Charria-Girón et al. 2023]).

The test system of assay [2] is Staphylococcus aureus (DSM 346). In words: microbe, parasite or virus in culture. In kind it is cell-based. To be noted: serial dilution in 96-well microtiter plates, tested up to 67 µg/mL. As for the experimental part:
as §1

In assay [3] the test system is Acinetobacter baumannii (DSM 30008). In words: MIC serial dilution assay. The assay is classed as cell-based. To be noted: serial dilution in 96-well microtiter plates, tested up to 67 µg/mL. The method, then: as §1
Assay [4] has as its system Candida albicans (DSM 1665). In words: MIC serial dilution assay. In kind it is cell-based. The following applies: serial dilution in 96-well microtiter plates, tested up to 67 µg/mL. As for the experimental part:
as §1

Assay [5] deals with Chromobacterium violaceum (DSM 30191). In words: MIC serial dilution assay. In kind it is cell-based. To be noted: serial dilution in 96-well microtiter plates, tested up to 67 µg/mL. As for the experimental part:
as §1

The subject of assay [6] is Escherichia coli (DSM 1116). In words: MIC serial dilution assay. The assay is classed as cell-based. To be noted: serial dilution in 96-well microtiter plates, tested up to 67 µg/mL. As for the experimental part: as §1
Assay [7] has as its system Mucor hiemalis (DSM 2656). In words: MIC serial dilution assay. In kind it is cell-based. The following applies: serial dilution in 96-well microtiter plates, tested up to 67 µg/mL. As for the experimental part:
as §1

The test system of assay [8] is Mycobacterium smegmatis (ATCC 700084). In words: MIC serial dilution assay. In kind it is cell-based. To be noted: serial dilution in 96-well microtiter plates, tested up to 67 µg/mL. As for the experimental part:
as §1

Assay [9] deals with Pseudomonas aeruginosa (PA14). In words: MIC serial dilution assay. In kind it is cell-based. To be noted: serial dilution in 96-well microtiter plates, tested up to 67 µg/mL. The method, then:
as §1

The test system of assay [10] is Rhodotorula glutinis (DSM 10134). In words: MIC serial dilution assay. The assay is classed as cell-based. The following applies: serial dilution in 96-well microtiter plates, tested up to 67 µg/mL. The method, then:
as §1

The test system of assay [11] is Schizosaccharomyces pombe (DSM 70572). In words: MIC serial dilution assay. The following applies: serial dilution in 96-well microtiter plates, tested up to 67 µg/mL. The assay is classed as cell-based. As for the experimental part:
as §1

Assay [12] concerns Wickerhamomyces anomalus (DSM 6766). In words: MIC serial dilution assay. The assay is classed as cell-based. To be noted: serial dilution in 96-well microtiter plates, tested up to 67 µg/mL. As for the experimental part: as §1
For another assay, the system named is Mouse fibroblast (L929). In words: Cytotoxicity assay. In kind it is cell-based. To be noted: serial dilution in 96-well plates.
Assay [13] relates to Human endocervival adenocarcinoma (KB3.1). In words: cells. The assay is classed as cell-based. As for the experimental part: as §1
Assay [14] deals with beet armyworm (Spodoptera exigua, Lepidoptera). In words: Virulence of purified compounds against beet armyworm larvae (injection). In kind it is in vivo. The following applies: larvae injected with 0.5 µL of DMSO dilutions (40 to 0.625 µg/mL), n = 6 per concentration, 25 °C; concentration of the value not stated. The method, then: To evaluate the virulence of purified compounds against beet armyworm larvae, beauveriolides I (4) and M (5) were selected based on availability, and cytochalasin D served as a positive control. […] Larvae were injected with 0.5 µL of each dilution (n = 6 per concentration), maintained at 25 °C for one week, and monitored daily to assess mortality. Saline ([…]) and DMSO served as negative controls.
For proof of concept, beauveriolides I (4) and M (5) were selected based on availability and tested following the spore-suspension protocol but considering only total mortality, with cytochalasin D, a mycotoxin commonly produced by Metarhizium spp., used as a positive control ([Kobmoo et al. 2024]).

Setting [15] is: Bacillus subtilis, DSM10, read-out: MIC.
Setting [16] is: KB3.1, serial dilution in 96-well plates, read-out: IC50.
Setting [17] is: Staphylococcus aureus, DSM346, read-out: MIC.
Setting [18] is: Chromobacterium violaceum, DSM30191, read-out: MIC.
Setting [19] is: Escherichia coli, DSM1116, read-out: MIC.
Setting [20] is: Pseudomonas aeruginosa, PA14, read-out: MIC.
The mark [21] stands for this setting: Candida albicans, DSM1665, read-out: MIC.
Where [22] appears, read: Mucor hiemalis, DSM2656, read-out: MIC.
[23] abbreviates: Mycolicibacterium smegmatis, ATCC700084, read-out: MIC.
The mark [24] stands for this setting: Homo sapiens, KB 3-1, KB3.1, serial dilution in 96-well plates, read-out: IC50.

Consider `CN(C)[C@@H]1C(O)=C(C(N)=O)C(=O)[C@@]2(O)C(O)=C3C(=O)c4c(O)cccc4[C@@](C)(O)[C@H]3[C@H](O)[C@@H]12` [oxytetracycline, reference compound], for which the MIC in assay [1] (setting [15]) worked out at 16.6 µg/mL (≈ 36.1 µM).
The IC50 is the concentration that gives 50% inhibition. As for cyclo-((S)-Pro-(R)-Ile) [Compound 9], the MIC entry in [1], in [2], in assay [3], in assay [4], in assay [5] and in assay [6] was “n.i. (No inhibition up to 67 µg/mL)” each time. For the same molecule, the MIC result in [7], in assay [8], in assay [9], in assay [10], in assay [11] and in assay [12] was “n.i. (No inhibition up to 67 µg/mL)” in each case. Moreover, the IC50 (in the assay with Mouse fibroblast (L929); in assay [13] (setting [16])) was over 36.5 µM throughout.
Take cyclo-((S)-Val-(R)-Val) [Compound 10]: the MIC result in assay [1], in assay [2], in assay [4], in [6], in [7] and in assay [8] was “n.i. (No inhibition up to 67 µg/mL)” throughout. In assay [9], the MIC result is given as “n.i. (No inhibition up to 67 µg/mL)”. Further, the IC50 (in the assay on Mouse fibroblast (L929); in assay [13] (setting [16])) was over 36.5 µM each time.
Turning to `C=C1[C@@H](C)[C@H]2[C@H](Cc3ccccc3)NC(=O)[C@]23[C@H](OC(C)=O)/C=C/[C@@](C)(O)C(=O)[C@@H](C)C/C=C/[C@H]3[C@@H]1O` [cytochalasin D, reference compound], in assay [14], the “total mortality (TM) by day 2” value worked out at 83%.
With beauveriolide L [Compound 6], the MIC result in assay [1], in assay [2], in [4], in assay [6], in assay [7] and in assay [8] was “n.i. (No inhibition up to 67 µg/mL)” throughout. Moreover, the MIC result in assay [9] is on record as “n.i. (No inhibition up to 67 µg/mL)”. The IC50 (in the assay on Mouse fibroblast (L929); in assay [13] (setting [16])) was over 36.5 µM in each case.
On to `CNC(C)C1CCC(N)C(OC2C(N)CC(N)C(OC3OCC(C)(O)C(NC)C3O)C2O)O1` (centres unmarked) [gentamicin, reference compound], for which the MIC in [2] (setting [17]) was 0.21 µg/mL (≈ 0.44 µM); in assay [5] (setting [18]) it was 1.7 µg/mL (≈ 3.56 µM); in assay [6] (setting [19]), 0.42 µg/mL (≈ 0.879 µM); in assay [9] (setting [20]) it was 0.21 µg/mL (≈ 0.44 µM).
With `CC(=O)c1nccc2c1[nH]c1ccccc12` [Compound 11, 1-acetyl-β-carboline], the MIC in [1] (setting [15]), in assay [2] (setting [17]), in assay [4] (setting [21]), in [6] (setting [19]), in assay [7] (setting [22]) and in assay [8] (setting [23]) was over 67 µg/mL in each case. Besides, the MIC in assay [9] (setting [20]) is over 67 µg/mL. The IC50 (in the assay with Mouse fibroblast (L929) (Mus musculus); in assay [13] (setting [24])) was over 36.5 µM in each case.
For `CC(=O)c1nc(C(=O)O)cc2c1[nH]c1ccccc12` [Compound 12, 1-acetyl-3-carboxy-β-carboline], the MIC was over 67 µg/mL in [1] (setting [15]); over 67 µg/mL in [2] (setting [17]); over 67 µg/mL in assay [3] (Acinetobacter baumannii, DSM30008, read-out: MIC); over 67 µg/mL in assay [4] (setting [21]); over 67 µg/mL in [5] (setting [18]); over 67 µg/mL in assay [6] (setting [19]). The MIC is over 67 µg/mL in assay [7] (setting [22]); over 67 µg/mL in assay [8] (setting [23]); over 67 µg/mL in [9] (setting [20]); over 67 µg/mL in [10] (Rhodotorula glutinis, DSM10134, read-out: MIC); over 67 µg/mL in [11] (Schizosaccharomyces pombe, DSM70572, read-out: MIC); over 67 µg/mL in assay [12] (Hansenula anomala, DSM6766, read-out: MIC). The IC50 (in the assay on Mouse fibroblast (L929) (Mus musculus); in assay [13] (setting [24])) was over 36.5 µM throughout.
Regarding `NC[C@H]1O[C@H](O[C@H]2[C@H](O)[C@@H](O[C@H]3O[C@H](CO)[C@@H](O)[C@H](N)[C@H]3O)[C@H](N)C[C@@H]2N)[C@H](O)[C@@H](O)[C@@H]1O` [kanamycin, reference compound], the MIC in assay [8] was 1.70^K µg/mL.
`CCCC[C@H](C)[C@@H]1CC(=O)N[C@@H](Cc2c[nH]c3ccccc23)C(=O)N[C@@H](Cc2ccccc2)C(=O)N[C@H](CC(C)C)C(=O)O1` [Compound 7, beauveriolide Jb]: the MIC entry in assay [1], in assay [2], in [3], in assay [4], in assay [5] and in [6] was “n.i. (No inhibition up to 67 µg/mL)” each time. Besides, the MIC entry in [7], in assay [8], in [9], in assay [10], in assay [11] and in assay [12] was “n.i. (No inhibition up to 67 µg/mL)” in each case. Further, the figures for the IC50 (with Mouse fibroblast (L929); in [13]) were over 36.5 µM and 36.5 µM, respectively.
On to `C[C@@H]1[C@H](O)[C@@H](C)/C=C/C=C/CC/C=C/C=C/C=C/C=C/C(O[C@H]2O[C@H](C)[C@@H](O)[C@H](N)[C@@H]2O)CC2O[C@](O)(CC(O)C(O)CCC(O)CC(O)CC(O)CC(=O)O[C@H]1C)CC(O)C2C(=O)O` (some centres unmarked) [nystatin, reference compound], for which the MIC in [4] is reported as 8.3^N µg/mL; in assay [7], 8.30^N µg/mL; in assay [10] it was 4.20^N µg/mL; in [11] it was 8.30^N µg/mL; in [12], 16.6^N µg/mL.
In the case of cyclo-((S)-Pro-(R)-Leu) [Compound 8], the MIC entry in assay [1], in assay [2], in assay [3], in assay [4], in assay [5] and in [6] was “n.i. (No inhibition up to 67 µg/mL)” in each case. Besides, the MIC result in assay [7], in assay [8], in assay [9], in assay [10], in [11] and in [12] was “n.i. (No inhibition up to 67 µg/mL)” each time. In addition, the 50% inhibitory concentration (IC50) (in the assay with Mouse fibroblast (L929); in assay [13] (setting [16])) was over 36.5 µM in each case.
